# Tests used:
# Test in all cases: KINOMEscan
# Format in all cases: binding
# Details in all cases: 1 uM
# JNK3 = JNK3 (Homo sapiens (Human), UniProt P53779)
# ACVRL1 = ACVRL1 (Homo sapiens (Human), UniProt P37023)
# LTK = LTK (Homo sapiens (Human), UniProt P29376)
# CHEK2 = CHEK2 (Homo sapiens (Human), UniProt O96017)
# MARK1 = MARK1 (Homo sapiens (Human), UniProt Q9P0L2)
# ERK1 = ERK1 (Homo sapiens (Human), UniProt P27361)
# EPHB6 = EPHB6 (Homo sapiens (Human), UniProt O15197)
# PIK3CA (I800L) = PIK3CA (I800L) (Homo sapiens (Human), UniProt P42336, I800L)
# PIK3CA (Q546K) = PIK3CA (Q546K) (Homo sapiens (Human), UniProt P42336, Q546K)
# PIK3CA (H1047L) = PIK3CA (H1047L) (Homo sapiens (Human), UniProt P42336, H1047L)
# MAK = MAK (Homo sapiens (Human), UniProt P20794)
# PRKG2 = PRKG2 (Homo sapiens (Human), UniProt Q13237)
# Chain of PRKG2 (Q13237 whole entry): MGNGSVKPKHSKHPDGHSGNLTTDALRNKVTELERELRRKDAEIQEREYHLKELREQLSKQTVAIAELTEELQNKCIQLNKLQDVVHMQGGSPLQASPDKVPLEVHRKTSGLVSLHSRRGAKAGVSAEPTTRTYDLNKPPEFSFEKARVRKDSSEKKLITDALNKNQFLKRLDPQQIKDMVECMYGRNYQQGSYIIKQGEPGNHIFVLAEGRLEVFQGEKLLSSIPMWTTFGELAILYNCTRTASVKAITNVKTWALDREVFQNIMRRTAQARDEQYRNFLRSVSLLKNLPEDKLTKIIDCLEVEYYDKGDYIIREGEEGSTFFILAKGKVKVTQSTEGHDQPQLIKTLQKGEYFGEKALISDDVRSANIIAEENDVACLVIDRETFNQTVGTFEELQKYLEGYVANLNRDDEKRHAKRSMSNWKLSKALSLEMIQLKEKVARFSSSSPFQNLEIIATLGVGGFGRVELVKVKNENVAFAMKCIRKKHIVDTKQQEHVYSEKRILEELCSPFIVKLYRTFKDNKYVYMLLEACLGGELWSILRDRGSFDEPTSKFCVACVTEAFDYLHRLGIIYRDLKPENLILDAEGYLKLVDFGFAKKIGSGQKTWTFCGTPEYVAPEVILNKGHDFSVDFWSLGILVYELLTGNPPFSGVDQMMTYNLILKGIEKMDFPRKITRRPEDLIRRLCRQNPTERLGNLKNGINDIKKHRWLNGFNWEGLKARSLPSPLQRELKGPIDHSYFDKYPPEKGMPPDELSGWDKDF
# Chain of JNK3 (P53779 whole entry): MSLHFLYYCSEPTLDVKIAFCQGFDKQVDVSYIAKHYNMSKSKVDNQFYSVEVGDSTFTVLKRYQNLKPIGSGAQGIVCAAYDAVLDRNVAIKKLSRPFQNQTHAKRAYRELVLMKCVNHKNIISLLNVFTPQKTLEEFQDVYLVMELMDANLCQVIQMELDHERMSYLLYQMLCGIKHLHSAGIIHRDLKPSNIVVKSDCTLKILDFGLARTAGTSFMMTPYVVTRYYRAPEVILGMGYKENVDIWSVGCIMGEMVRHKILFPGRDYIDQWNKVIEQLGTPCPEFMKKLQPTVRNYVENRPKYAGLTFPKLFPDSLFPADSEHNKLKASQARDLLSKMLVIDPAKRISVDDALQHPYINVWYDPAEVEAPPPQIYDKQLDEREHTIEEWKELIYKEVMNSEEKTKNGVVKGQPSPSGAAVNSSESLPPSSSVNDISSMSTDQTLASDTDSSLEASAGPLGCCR
# Chain of CHEK2 (O96017 whole entry): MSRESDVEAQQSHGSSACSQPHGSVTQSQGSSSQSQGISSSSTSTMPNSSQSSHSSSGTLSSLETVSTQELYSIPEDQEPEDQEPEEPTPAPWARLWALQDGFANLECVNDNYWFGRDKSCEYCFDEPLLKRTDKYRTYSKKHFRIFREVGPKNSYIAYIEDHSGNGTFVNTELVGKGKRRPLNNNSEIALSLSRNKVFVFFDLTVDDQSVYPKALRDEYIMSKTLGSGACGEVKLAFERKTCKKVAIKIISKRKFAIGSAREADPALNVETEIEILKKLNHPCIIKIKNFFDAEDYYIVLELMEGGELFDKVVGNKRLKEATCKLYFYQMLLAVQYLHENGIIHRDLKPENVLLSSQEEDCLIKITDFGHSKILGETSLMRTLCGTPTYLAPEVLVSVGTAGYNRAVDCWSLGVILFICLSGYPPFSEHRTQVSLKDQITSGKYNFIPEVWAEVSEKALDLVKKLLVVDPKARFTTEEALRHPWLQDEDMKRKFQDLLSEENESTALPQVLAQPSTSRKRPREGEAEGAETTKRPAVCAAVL
# Chain of PIK3CA (H1047L) (P42336 whole entry H1047L): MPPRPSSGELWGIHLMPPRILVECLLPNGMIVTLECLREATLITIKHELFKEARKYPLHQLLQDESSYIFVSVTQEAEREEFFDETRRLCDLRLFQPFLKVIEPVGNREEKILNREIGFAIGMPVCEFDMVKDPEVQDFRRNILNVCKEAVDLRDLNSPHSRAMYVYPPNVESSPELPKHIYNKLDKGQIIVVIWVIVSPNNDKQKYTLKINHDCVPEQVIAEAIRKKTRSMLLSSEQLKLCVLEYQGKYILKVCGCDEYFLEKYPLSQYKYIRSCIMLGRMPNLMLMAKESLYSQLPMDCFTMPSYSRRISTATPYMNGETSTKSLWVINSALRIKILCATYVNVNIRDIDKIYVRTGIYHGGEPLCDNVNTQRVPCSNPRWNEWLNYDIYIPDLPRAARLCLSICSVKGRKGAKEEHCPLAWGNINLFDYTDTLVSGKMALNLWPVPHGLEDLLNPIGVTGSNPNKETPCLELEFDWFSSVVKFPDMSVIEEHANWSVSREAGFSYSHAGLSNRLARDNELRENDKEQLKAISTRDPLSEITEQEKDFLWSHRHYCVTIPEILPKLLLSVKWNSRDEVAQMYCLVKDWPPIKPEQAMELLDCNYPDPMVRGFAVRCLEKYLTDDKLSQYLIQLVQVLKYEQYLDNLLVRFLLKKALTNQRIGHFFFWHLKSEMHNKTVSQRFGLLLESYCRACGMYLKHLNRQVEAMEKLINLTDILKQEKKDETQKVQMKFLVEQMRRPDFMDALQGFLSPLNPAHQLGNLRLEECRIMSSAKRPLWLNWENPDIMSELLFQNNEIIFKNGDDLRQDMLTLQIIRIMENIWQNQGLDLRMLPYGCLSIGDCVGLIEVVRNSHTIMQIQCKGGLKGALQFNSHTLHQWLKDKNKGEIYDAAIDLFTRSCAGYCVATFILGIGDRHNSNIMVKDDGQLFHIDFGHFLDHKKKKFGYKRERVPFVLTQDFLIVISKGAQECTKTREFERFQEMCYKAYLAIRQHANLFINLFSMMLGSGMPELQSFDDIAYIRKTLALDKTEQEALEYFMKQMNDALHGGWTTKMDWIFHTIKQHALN
# Chain of EPHB6 (O15197 32-1021): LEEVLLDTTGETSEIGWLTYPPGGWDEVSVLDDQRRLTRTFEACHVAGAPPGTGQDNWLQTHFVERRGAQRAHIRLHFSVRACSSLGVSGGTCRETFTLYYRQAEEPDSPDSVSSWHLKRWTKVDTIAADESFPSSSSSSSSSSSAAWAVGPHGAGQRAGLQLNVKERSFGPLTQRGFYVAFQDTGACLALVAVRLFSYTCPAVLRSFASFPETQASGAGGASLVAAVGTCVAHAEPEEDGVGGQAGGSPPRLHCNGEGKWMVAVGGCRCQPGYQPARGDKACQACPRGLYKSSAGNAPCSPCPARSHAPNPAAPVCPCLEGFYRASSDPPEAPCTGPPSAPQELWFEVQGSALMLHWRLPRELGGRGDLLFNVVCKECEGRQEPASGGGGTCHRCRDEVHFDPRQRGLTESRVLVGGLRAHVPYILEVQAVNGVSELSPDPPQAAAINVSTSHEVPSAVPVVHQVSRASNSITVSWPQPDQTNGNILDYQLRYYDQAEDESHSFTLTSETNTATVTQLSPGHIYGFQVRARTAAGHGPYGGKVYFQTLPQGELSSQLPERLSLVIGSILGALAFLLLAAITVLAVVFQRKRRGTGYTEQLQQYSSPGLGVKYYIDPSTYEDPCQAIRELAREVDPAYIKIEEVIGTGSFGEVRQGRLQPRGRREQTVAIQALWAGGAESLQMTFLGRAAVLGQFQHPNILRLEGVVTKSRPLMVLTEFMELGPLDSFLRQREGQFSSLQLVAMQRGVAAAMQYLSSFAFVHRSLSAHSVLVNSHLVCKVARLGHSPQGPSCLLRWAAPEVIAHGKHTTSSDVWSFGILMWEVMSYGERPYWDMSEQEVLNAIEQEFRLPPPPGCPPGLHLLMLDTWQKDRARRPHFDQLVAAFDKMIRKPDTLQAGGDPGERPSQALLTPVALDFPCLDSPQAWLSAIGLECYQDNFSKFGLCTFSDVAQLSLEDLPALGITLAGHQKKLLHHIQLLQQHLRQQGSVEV
# Chain of ERK1 (P27361 whole entry): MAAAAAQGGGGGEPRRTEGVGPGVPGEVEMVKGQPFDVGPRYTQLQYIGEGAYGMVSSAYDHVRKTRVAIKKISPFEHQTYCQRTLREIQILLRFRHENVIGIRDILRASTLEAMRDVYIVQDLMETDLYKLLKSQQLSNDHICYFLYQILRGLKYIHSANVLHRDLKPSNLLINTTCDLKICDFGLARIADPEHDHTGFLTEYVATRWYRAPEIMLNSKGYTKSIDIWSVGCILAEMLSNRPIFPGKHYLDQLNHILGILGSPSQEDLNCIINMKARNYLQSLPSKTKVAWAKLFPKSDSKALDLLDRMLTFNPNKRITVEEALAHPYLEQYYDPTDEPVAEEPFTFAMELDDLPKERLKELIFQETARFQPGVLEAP
# Chain of MARK1 (Q9P0L2 whole entry): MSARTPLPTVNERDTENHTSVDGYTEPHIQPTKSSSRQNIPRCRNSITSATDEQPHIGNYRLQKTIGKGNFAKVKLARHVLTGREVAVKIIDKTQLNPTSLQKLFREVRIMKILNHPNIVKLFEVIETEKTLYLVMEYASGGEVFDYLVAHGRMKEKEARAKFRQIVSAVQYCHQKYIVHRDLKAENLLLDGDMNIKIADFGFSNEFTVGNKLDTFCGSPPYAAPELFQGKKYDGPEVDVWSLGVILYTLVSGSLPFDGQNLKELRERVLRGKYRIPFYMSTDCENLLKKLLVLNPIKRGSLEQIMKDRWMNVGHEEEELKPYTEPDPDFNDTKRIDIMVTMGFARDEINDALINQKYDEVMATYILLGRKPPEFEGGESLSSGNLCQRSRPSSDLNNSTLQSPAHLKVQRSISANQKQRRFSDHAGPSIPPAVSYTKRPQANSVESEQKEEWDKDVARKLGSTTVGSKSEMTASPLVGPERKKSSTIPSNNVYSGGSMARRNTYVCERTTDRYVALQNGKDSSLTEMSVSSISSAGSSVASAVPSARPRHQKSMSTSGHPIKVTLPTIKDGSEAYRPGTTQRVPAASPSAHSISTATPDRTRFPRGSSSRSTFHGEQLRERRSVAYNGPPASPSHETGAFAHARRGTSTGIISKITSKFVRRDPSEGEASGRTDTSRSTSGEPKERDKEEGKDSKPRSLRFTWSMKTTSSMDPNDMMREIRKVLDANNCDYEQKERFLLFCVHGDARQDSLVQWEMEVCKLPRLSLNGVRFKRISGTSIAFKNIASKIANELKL
# Chain of PIK3CA (Q546K) (P42336 whole entry Q546K): as the sequence (P42336 whole entry H1047L) above, with Q546K, L1047H counted along it
smiles,measurement,setting,value
COc1ccc(N2C(=O)N(c3c(C)cccc3C)Cc3cnc(Nc4ccc(N5CCN(C)CC5)cc4)nc32)c(OC)c1 [HG-11-136-01],KINOMEscan JNK3,JNK3,32
same,KINOMEscan ACVRL1,ACVRL1,16
same,KINOMEscan LTK,LTK,18
same,KINOMEscan CHEK2,CHEK2,46
same,KINOMEscan MARK1,MARK1,5.1
same,KINOMEscan ERK1,ERK1,100
same,KINOMEscan EPHB6,EPHB6,0.7
same,KINOMEscan PIK3CA (I800L),PIK3CA (I800L),94
same,KINOMEscan PIK3CA (Q546K),PIK3CA (Q546K),94
same,KINOMEscan PIK3CA (H1047L),PIK3CA (H1047L),96
same,KINOMEscan MAK,MAK,100
same,KINOMEscan PRKG2,PRKG2,92
